US20250296959A1, “B7-H3 TARGETING PEPTIDES AND CONSTRUCTS THEREOF” (Mariana Oncology Inc., priority 2024, published 2025)
Read-outs that look alike come from different tables or passages of the source. Starred links: 1 amine or outer side, 2 acyl side, 3 side chain; linkers in the order of their positions; H or OH if unused. Positions of bridges follow the written chain, without caps; N, C: chain ends. Non-standard residues stand in square brackets, D forms with d. Residues, ends and D or L forms follow the SMILES beside them. Groups on a side chain read outwards from the residue. *: point of attachment. X2 = O=C(O)CN1CCN(CC(=O)O)CCN(CC(=O)NCCOCCOCCOCCOCC(=O)*)CCN(CC(=O)O)CC1; Ala(piperidin-4-yl) = O=C([C@H](CC1CCN([*:3])CC1)N[*:1])[*:2]; DOTA = O=C(O)CN1CCN(CC(=O)O)CCN(CC(=O)*)CCN(CC(=O)O)CC1; Phe(4-COOH) = N[C@@H](Cc1ccc(C(=O)O)cc1)C(=O)O; Trp(5-F) = N[C@@H](Cc1c[nH]c2ccc(F)cc12)C(=O)O; PEG8 = NCCOCCOCCOCCOCCOCCOCCOCCOCCC(=O)O; γGlu = O=C(O)[C@H](CCC(=O)[*:2])N[*:1]; 1Nal = N[C@@H](Cc1cccc2ccccc12)C(=O)O; Ala(4-THP) = N[C@@H](CC1CCOCC1)C(=O)O; Val(3-OH) = CC(C)(O)[C@H](N)C(=O)O; 4Pal = N[C@@H](Cc1ccncc1)C(=O)O; PEG4 = NCCOCCOCCOCCOCCC(=O)O; Tle = CC(C)(C)[C@H](N)C(=O)O; hLeu = CC(C)CC[C@H](N)C(=O)O; Sar = CNCC(=O)O

What was measured:
Calu-6 cell line [1] = test: Cell associated (bound) fraction of [177Lu]Lu-labeled peptide in Calu-6 cells; format: cell-based, Human; conditions: 1 hour, 37° C.
How it was run: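 Detached B7-H3-expressing human lung cancer cells at 5 million/mL were exposed for 1 hour at 37 °C to 0.8 μCi of the 177Lu-labelled peptide, which was formulated in 1% PBSA after labelling at 80 °C, pH ~5. Supernatant and two cold washes counted as unbound, and resuspended cells gamma-counted as the cell-associated fraction.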

Calu-6 cell line [2] = test: Net internalization of [177Lu]Lu-labeled peptide in Calu-6 cells; format: cell-based, Human; conditions: 1 hour, 37° C., glycine pH 2.5 acid wash
How it was run: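 Calu-6 cells, human non-engineered lung cancer expressing B7-H3, resuspended in 1% PBSA at 5 million cells/mL and incubated with the 177Lu-labeled conjugate (labeled at 80 °C, pH ~5, RP-HPLC checked). Gamma counting of the bound fraction, then of the pellet after two glycine pH 2.5 acid strips and NaOH lysis, gives internalized activity.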

human 4lg B7-H3 = molecular target: T1, human 4lg B7-H3 (Homo sapiens, UniProt Q5ZPR3); test: Affinity determination by surface plasmon resonance (SPR) to 4Ig B7-H3; conditions: 4Ig B7-H3
T1 sequence (Q5ZPR3 29-534): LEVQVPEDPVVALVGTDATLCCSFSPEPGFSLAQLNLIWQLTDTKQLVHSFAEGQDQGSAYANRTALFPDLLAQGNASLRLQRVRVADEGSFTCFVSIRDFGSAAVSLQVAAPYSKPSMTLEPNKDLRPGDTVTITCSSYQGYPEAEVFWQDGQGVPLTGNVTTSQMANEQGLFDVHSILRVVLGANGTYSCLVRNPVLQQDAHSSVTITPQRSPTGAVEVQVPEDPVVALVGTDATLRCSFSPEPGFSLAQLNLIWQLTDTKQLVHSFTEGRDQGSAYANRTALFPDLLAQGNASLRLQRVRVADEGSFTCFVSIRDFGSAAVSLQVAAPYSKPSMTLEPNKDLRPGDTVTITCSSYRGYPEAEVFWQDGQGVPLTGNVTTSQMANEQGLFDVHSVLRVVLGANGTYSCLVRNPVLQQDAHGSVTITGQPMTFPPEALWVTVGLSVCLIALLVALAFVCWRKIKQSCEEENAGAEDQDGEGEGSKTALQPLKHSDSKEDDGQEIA

[3] = SPR KD—25° C., 25° C. flow cell temperature
[4] = read-out: SPR KD—25° C., 25° C. flow cell temperature
[5] = read-out: SPR KD—37° C., 37° C. flow cell temperature

SMILES | % cell associated fraction (Calu-6 cell line [1]) | % net internalization (Calu-6 cell line [2]) | Kd (human 4lg B7-H3; [3]) | Kd (human 4lg B7-H3; SPR KD—37° C., 37° C. flow cell temperature) | Kd (human 4lg B7-H3; [4]) | Kd (human 4lg B7-H3; [5])
CC[C@H](C)[C@@H]1NC(=O)[C@@H](NC(=O)[C@H](Cc2ccc(O)cc2)NC(=O)[C@H](CCC(C)C)NC(C)=O)CSSC[C@@H](C(=O)N[C@@H](Cc2c[nH]c3ccc(F)cc23)C(=O)N[C@@H](Cc2ccccc2)C(=O)N[C@H](C(N)=O)C(C)(C)O)NC(=O)[C@H](Cc2ccc(O)cc2)NC(=O)[C@H](C(C)C)NC(=O)[C@H](CC(=O)O)NC(=O)[C@H](CC2CCNCC2)NC(=O)[C@H](CCCCNC(=O)CN2CCN(CC(=O)O)CCN(CC(=O)O)CCN(CC(=O)O)CC2)NC(=O)CNC1=O [compound 203, Ac-hLeu-Y-C-Ile-G-Lys(DOTA)-PipAla-D-V-Y-C-5FW-F-hydroxyVal-CONH2] (Ac-[hLeu]YCIGK(DOTA)[Ala(piperidin-4-yl)]DVYC[Trp(5-F)]F[Val(3-OH)]-NH2; disulfide 3-11) | B (25<%≤50) | A (%≤25) | < 1 nM |  |  | 
CC(=O)N[C@@H](CCC(C)C)C(=O)N[C@@H](Cc1ccc(O)cc1)C(=O)N[C@H]1CSSC[C@@H](C(=O)N[C@@H](Cc2cccc3ccccc23)C(=O)N[C@@H](Cc2ccccc2)C(=O)N2CCC[C@H]2C(N)=O)NC(=O)[C@H](Cc2ccc(O)cc2)NC(=O)[C@H](C(C)C)NC(=O)[C@H](CC(=O)O)NC(=O)[C@H](Cc2ccncc2)NC(=O)[C@H](CCCCNC(=O)CC[C@H](NC(=O)CC[C@H](NC(=O)CN2CCN(CC(=O)O)CCN(CC(=O)O)CCN(CC(=O)O)CC2)C(=O)O)C(=O)O)NC(=O)CNC(=O)[C@H](C(C)(C)C)NC1=O [compound 253, Ac-hLeu-Y-C-Tbg-G-Lys(gE-gE-DOTA)-4PyA-D-V-Y-C-1Nal-F-Pro-CONH2] (Ac-[hLeu]YC[Tle]GK([γGlu-γGlu-DOTA])[4Pal]DVYC[1Nal]FP-NH2; disulfide 3-11) | A (%≤25) | A (%≤25) | 1 to 10 nM |  |  | 
CC(=O)N[C@@H](CCC(C)C)C(=O)N[C@@H](Cc1ccc(O)cc1)C(=O)N[C@H]1CSSC[C@@H](C(=O)N[C@@H](Cc2cccc3ccccc23)C(=O)N[C@@H](Cc2ccccc2)C(=O)N2CCC[C@H]2C(=O)N[C@H](CCCCNC(=O)COCCOCCOCCOCCNC(=O)CN2CCN(CC(=O)O)CCN(CC(=O)O)CCN(CC(=O)O)CC2)C(N)=O)NC(=O)[C@H](Cc2ccc(O)cc2)NC(=O)[C@H](C(C)C)NC(=O)[C@H](CC(=O)O)NC(=O)[C@H](CC2CCOCC2)NC(=O)[C@H](CCCCN)NC(=O)CNC(=O)[C@H](C(C)(C)C)NC1=O [compound 259, Ac-hLeu-Y-C-Tbg-G-K-ThpA-D-V-Y-C-1Nal-F-Pro-dLys(PEG4-DOTA)-CONH2] (Ac-[hLeu]YC[Tle]GK[Ala(4-THP)]DVYC[1Nal]FP[dK](X2)-NH2; disulfide 3-11) | B (25<%≤50) | A (%≤25) | < 1 nM | 1 to 10 nM |  | 
CC(=O)N[C@@H](CCC(C)C)C(=O)N[C@@H](Cc1ccc(O)cc1)C(=O)N[C@H]1CSSC[C@@H](C(=O)N[C@@H](Cc2c[nH]c3ccc(F)cc23)C(=O)N[C@@H](Cc2ccccc2)C(=O)N2CCC[C@H]2C(=O)N[C@H](CCCCNC(=O)CN2CCN(CC(=O)O)CCN(CC(=O)O)CCN(CC(=O)O)CC2)C(N)=O)NC(=O)[C@H](Cc2ccc(O)cc2)NC(=O)[C@H](C(C)C)NC(=O)[C@H](CC(=O)O)NC(=O)[C@H](Cc2ccc(C(=O)O)cc2)NC(=O)[C@H](CC2CCNCC2)NC(=O)CNC(=O)[C@H](C(C)C)NC1=O [compound 286, Ac-hLeu-Y-C-V-G-PipAla-4COOHPhe-D-V-Y-C-5FW-F-Pro-dLys(DOTA)-CONH2] (Ac-[hLeu]YCVG[Ala(piperidin-4-yl)][Phe(4-COOH)]DVYC[Trp(5-F)]FP[dK](DOTA)-NH2; disulfide 3-11) | C (%>50) | A (%≤25) |  |  | < 1 nM | 1 to 10 nM
CC(=O)N[C@@H](CCC(C)C)C(=O)N[C@@H](Cc1ccc(O)cc1)C(=O)N[C@H]1CSSC[C@@H](C(=O)N[C@@H](Cc2c[nH]c3ccccc23)C(=O)N[C@@H](Cc2ccccc2)C(=O)N[C@H](C(=O)N[C@H](CCCCNC(=O)CN2CCN(CC(=O)O)CCN(CC(=O)O)CCN(CC(=O)O)CC2)C(N)=O)[C@@H](C)O)NC(=O)[C@H](Cc2ccc(O)cc2)NC(=O)[C@H](C(C)C)NC(=O)[C@H](CC(=O)O)NC(=O)[C@H](Cc2ccncc2)NC(=O)[C@H](CCCCN)NC(=O)CNC(=O)[C@H](C(C)(C)C)NC1=O [compound 157, Ac-hLeu-Y-C-Tbg-G-K-4PyA-D-V-Y-C-W-F-Thr-dLys(DOTA)-CONH2] (Ac-[hLeu]YC[Tle]GK[4Pal]DVYCWFT[dK](DOTA)-NH2; disulfide 3-11) | B (25<%≤50) | A (%≤25) |  |  | < 1 nM | 
CC(=O)N[C@@H](CCC(C)C)C(=O)N[C@@H](Cc1ccc(O)cc1)C(=O)N[C@H]1CSSC[C@@H](C(=O)N[C@@H](Cc2c[nH]c3ccc(F)cc23)C(=O)N[C@@H](Cc2ccccc2)C(=O)N[C@H](C(=O)N[C@H](CO)C(N)=O)C(C)(C)O)NC(=O)[C@H](Cc2ccc(O)cc2)NC(=O)[C@H](C(C)C)NC(=O)[C@H](CC(=O)O)NC(=O)[C@H](CC2CCOCC2)NC(=O)[C@H](CC2CCN(C(=O)CCOCCOCCOCCOCCNC(=O)CN3CCN(CC(=O)O)CCN(CC(=O)O)CCN(CC(=O)O)CC3)CC2)NC(=O)CNC(=O)[C@H](C(C)(C)C)NC1=O [compound 407, Ac-hLeu-Y-C-Tbg-G-Pip(PEG4-DOTA)Ala-ThpA-D-V-Y-C-5FW-F-hydroxyVal-dSer-CONH2] (Ac-[hLeu]YC[Tle]G[Ala(piperidin-4-yl)]([PEG4-DOTA])[Ala(4-THP)]DVYC[Trp(5-F)]F[Val(3-OH)][dS]-NH2; disulfide 3-11) | C (%>50) | A (%≤25) |  |  |  | < 1 nM
CC(C)CC[C@H](NC(=O)CCOCCOCCOCCOCCOCCOCCOCCOCCNC(=O)CN1CCN(CC(=O)O)CCN(CC(=O)O)CCN(CC(=O)O)CC1)C(=O)N[C@@H](Cc1ccc(O)cc1)C(=O)N[C@H]1CSSC[C@@H](C(=O)N[C@@H](Cc2c[nH]c3ccc(F)cc23)C(=O)N[C@@H](Cc2ccccc2)C(=O)N2CCC[C@H]2C(N)=O)NC(=O)[C@H](Cc2ccc(O)cc2)NC(=O)[C@H](C(C)C)NC(=O)[C@H](CC(=O)O)NC(=O)[C@H](Cc2ccc(C(=O)O)cc2)NC(=O)[C@H](CCCCN)NC(=O)CNC(=O)[C@H](C(C)C)NC1=O [compound 294, DOTA-PEG8-hLeu-Y-C-V-G-K-4COOHPhe-D-V-Y-C-5FW-F-Pro-CONH2] ({DOTA-PEG8}-[hLeu]YCVGK[Phe(4-COOH)]DVYC[Trp(5-F)]FP-NH2; disulfide 3-11) | A (%≤25) | A (%≤25) | 1 to 10 nM |  |  | 
CC(=O)N[C@@H](CCC(C)C)C(=O)N[C@@H](Cc1ccc(O)cc1)C(=O)N[C@H]1CSSC[C@@H](C(=O)N[C@@H](Cc2c[nH]c3ccc(F)cc23)C(=O)N[C@@H](Cc2ccccc2)C(=O)N[C@H](C(=O)N[C@H](CCCCNC(=O)CN2CCN(CC(=O)O)CCN(CC(=O)O)CCN(CC(=O)O)CC2)C(=O)O)C(C)(C)O)NC(=O)[C@H](Cc2ccc(O)cc2)NC(=O)[C@H](C(C)C)NC(=O)[C@H](CC(=O)O)NC(=O)[C@H](CC2CCOCC2)NC(=O)[C@H](CCCCN)NC(=O)CN(C)C(=O)[C@H](C(C)(C)C)NC1=O [compound 348, Ac-hLeu-Y-C-Tbg-Sar-K-ThpA-D-V-Y-C-5FW-F-hydroxyVal-dLys(DOTA)-COOH] (Ac-[hLeu]YC[Tle][Sar]K[Ala(4-THP)]DVYC[Trp(5-F)]F[Val(3-OH)][dK](DOTA)-OH; disulfide 3-11) | B (25<%≤50) | A (%≤25) |  |  |  | < 1 nM
